Reference: patent US7410955B2, “Therapeutic use of agonist ligands specific to G2A receptor” (Biosynergen, Inc., priority 2002, dated 2008)

Tests used:
CLP-induced Sepsis model = assay: CLP-induced sepsis model; assay type: in vivo, ICR mice; conditions: 10 mg/kg intraperitoneal, same methods as Example 6-2 (four times at 12 hour intervals, 2 hours after CLP)
Description: After ICR mice (25-30 g in body weight; MJ Ltd.) had been anesthetized with pentobarbital, right abdominal sites of the mice were dissected in a length of 1 cm to expose their cecum, and sites below the ileocecal valve were ligated. And then, after 4˜6 punctures had been created on the cecum with 21-gauge needle, the abdomen was sutured again to cause peritonitis, thereby inducing Sepsis.
After the peritoneal cavity of mice had been exposed, it was washed with sterilized saline (2 ml). The resultant solution was diluted with HBSS (Sigma Chemical Co., USA) in a ratio of 1/1000, and then 10 μl of each diluted solution was spread on Trypticase Soy agar (BBL, Becton Dickinson Co., USA) plates. After overnight incubation at 37° C., colony forming unit (CFU) was measured.
7 mice were administered with 1-stearoyl LPC (Sigma Chemical Co., USA) dissolved in 1% BSA solution containing no fatty acid in an amount of 10 mg/kg by subcutaneous injection 2 and 14 hours after the CLP surgery, respectively (experimental group). The remaining 7 mice were administered with 1% BSA solution containing no fatty acid of the same amount as above in the same manner (control group). The numbers of intraperitoneal E. coli cells in the ICR mice of experimental and control groups were measured in accordance with Reference Example 3, 24 hours after the CLP surgery.
Each 10 ICR mice were intraperitoneally administered with 1-stearoyl LPC (Sigma Chemical Co., USA) dissolved in 1% BSA solution containing no fatty acid in amounts of 5, 10, and 20 mg/kg, respectively, four times at intervals of 12 hours, 2 hours after the CLP surgery (experimental group-1, -2 and -3). The remaining 10 ICR mice were administered only with 1% BSA solution containing no fatty acid (control group). And then, the survival rates of mice in experimental- and control groups were investigated over the lapse of time.
10 mice for the experimental group were intraperitoneally administered with 1-stearoyl LPC (Sigma Chemical Co., USA) dissolved in 1% BSA solution containing no fatty acid in an amount of 10 mg/kg, four times at intervals of 12 hours, 10 hours after the CLP surgery. The remaining 10 mice for the control group were administered only with 1% BSA solution containing no fatty acid. Thereafter, the survival rates of ICR mice in experimental- and control groups were investigated over the lapse of time.
CLP-induced Sepsis model mice were subcutaneously injected with SPC, instead of 1-stearoyl LPC, in dosages of 3 mg/kg and 30 mg/kg four times at intervals of 12 hours, 2 hours after the CLP surgery, respectively. The survival rates of mice were investigated.

neutrophils = assay: Inhibition of anti-apoptosis of neutrophils by inflammation mediators (AcOr/EtBr staining); assay type: cell-based, human; conditions: 15 μM and 30 μM, 1 hour before 1 μg/ml LPS, read after 24 hours
Description: Neutrophils were isolated from healthy adults using discontinuous percoll gradient according to the method of Szucs, S. et al. (J. Immunol. Methods, 167: 245-251, 1994). First, plasmas were separated from heparinized whole blood, and red blood cells were depleted by dextran sedimentation. Thereafter, leukocytes were layered over a percoll gradient with densities of 1.077 and 1.094 (Pharmacia, Sweden). Separated neutrophil layers were recovered from the percoll gradient interface, and then washed with HBSS (Hank's balanced salt solution, Sigma Chemical Co., USA). The remaining pellet was resuspended in RPMI 1640 medium supplemented with 10% FBS (fetal bovine serum) and 2 mM gentamicin. As a result of the examination of the cytospin stained with Wright-Giemsa (Sigma Chemical Co., USA), it was observed that the resuspension solution contained 95% or more neutrophils. Also, as a result of examination using trypan blue dye exclusion method, 98% or more neutrophils were observed.
1×10^5 neutrophil cells isolated in above Example <1-1> were cultured in a 96-well plate to which RPMI1640 medium containing 10% FBS was added. Thereafter, they were treated with 1-stearoyl lysophosphatidylcoline (Sigma Chemical Co., USA) in concentrations of 15 μM and 30 μM, respectively. After 1 hour, they were treated with 1 μg/ml LPS (Sigma Chemical Co.). After 24 hours, the medium was removed from the plats, and the remaining cells were washed twice with PBS (phosphate-buffered saline) buffer at 4° C. The cells adhered to the bottom of the plate were all scraped and put into a 1.5-ml eppendorf tube. Then, they were centrifuged at 2500 rpm for 5 min, and the supernatant was removed. Again, 0.1 ml of PBS buffer at 4° C. was added to the pellet, which was then well mixed using pipetting. To 25 μl of the cell suspension was added 2 μl of AcOr/EtBr dye solution in which 100 μg/ml of acridine orange (AcOr) and 100 μg/ml of ethidium bromide (EtBr) were mixed. Then, the percentage of apoptotic cells/total cells was calculated with observing the neutrophil cells under a fluorescence microscope. […]

G2A = molecular target: T1, G2A (Homo sapiens, UniProt Q9UNW8); conditions: reported by Kabarowski et al., Science 2001; cited from earlier work
T1 sequence (Q9UNW8 1-380): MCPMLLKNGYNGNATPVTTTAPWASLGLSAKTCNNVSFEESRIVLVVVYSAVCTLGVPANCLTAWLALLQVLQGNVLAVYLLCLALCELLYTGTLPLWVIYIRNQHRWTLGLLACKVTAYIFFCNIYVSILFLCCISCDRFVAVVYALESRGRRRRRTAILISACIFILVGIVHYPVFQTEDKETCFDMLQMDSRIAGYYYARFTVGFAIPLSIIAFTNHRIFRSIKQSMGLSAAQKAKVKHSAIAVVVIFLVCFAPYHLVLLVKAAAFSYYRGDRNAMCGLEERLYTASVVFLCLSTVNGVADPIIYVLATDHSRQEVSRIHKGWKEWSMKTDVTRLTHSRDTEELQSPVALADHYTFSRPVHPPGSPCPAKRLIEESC

Row | Compound | therapeutic effect against Sepsis (survival) (CLP-induced Sepsis model) | percentage of neutrophil apoptosis (apoptotic cells/total cells) that had been decreased by LPS (neutrophils) | affinity of G2A to the ligand (G2A)
1 | CCCCCCCCCCCCCC(=O)OC[C@@H](O)COP(=O)([O-])OCC[N+](C)(C)C [1-myristoyl LPC, 1-myristoyl (14:0) lysophospatidylcholine] | excellent therapeutic effect | – | –
2 | CCCCCCCCCCCCC/C=C/[C@@H](O)[C@@H](N)COP(=O)([O-])OCC[N+](C)(C)C [SPC, sphingosylphosphorylcholine] | – | increased by SPC in a concentration-dependent manner | low affinity
3 | lysophosphatidylcholine | – | – | high affinity
4 | CCCCCCCC/C=C\CCCCCCCC(=O)OCC(O)COP(=O)([O-])OCC[N+](C)(C)C (centres unmarked) [1-oleoyl LPC, 1-oleoyl (18:1) lysophosphatidylcholine] | excellent therapeutic effect | – | –
